target: Integrin alpha-IIb/beta-3 (Homo sapiens, UniProt P05106+P08514); assay: Inhibition of glycoprotein IIb/III integrin mediated fibrinogen binding to activated platelets; type: functional
Sequence (P05106 27-788 limits assumed): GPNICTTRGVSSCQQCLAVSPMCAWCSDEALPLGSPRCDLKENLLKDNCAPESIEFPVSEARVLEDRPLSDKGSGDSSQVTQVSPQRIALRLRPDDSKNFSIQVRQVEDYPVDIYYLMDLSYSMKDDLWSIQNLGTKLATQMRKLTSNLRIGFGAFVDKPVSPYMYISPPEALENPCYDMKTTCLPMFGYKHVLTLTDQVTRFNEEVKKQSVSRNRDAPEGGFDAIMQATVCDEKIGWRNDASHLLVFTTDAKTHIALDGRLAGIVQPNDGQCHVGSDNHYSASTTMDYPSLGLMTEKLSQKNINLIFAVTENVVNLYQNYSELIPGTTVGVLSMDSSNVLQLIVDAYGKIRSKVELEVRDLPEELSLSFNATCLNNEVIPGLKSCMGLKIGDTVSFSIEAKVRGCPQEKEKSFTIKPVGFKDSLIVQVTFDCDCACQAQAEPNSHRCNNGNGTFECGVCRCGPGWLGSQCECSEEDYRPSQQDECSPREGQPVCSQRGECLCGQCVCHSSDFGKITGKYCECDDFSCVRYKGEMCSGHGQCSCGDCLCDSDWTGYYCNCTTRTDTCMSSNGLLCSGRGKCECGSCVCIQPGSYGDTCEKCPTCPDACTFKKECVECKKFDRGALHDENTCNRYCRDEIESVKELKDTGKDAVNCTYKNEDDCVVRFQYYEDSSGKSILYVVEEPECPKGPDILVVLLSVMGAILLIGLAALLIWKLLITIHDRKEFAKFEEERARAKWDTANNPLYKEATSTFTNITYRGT
Sequence (P08514 32-887 limits assumed): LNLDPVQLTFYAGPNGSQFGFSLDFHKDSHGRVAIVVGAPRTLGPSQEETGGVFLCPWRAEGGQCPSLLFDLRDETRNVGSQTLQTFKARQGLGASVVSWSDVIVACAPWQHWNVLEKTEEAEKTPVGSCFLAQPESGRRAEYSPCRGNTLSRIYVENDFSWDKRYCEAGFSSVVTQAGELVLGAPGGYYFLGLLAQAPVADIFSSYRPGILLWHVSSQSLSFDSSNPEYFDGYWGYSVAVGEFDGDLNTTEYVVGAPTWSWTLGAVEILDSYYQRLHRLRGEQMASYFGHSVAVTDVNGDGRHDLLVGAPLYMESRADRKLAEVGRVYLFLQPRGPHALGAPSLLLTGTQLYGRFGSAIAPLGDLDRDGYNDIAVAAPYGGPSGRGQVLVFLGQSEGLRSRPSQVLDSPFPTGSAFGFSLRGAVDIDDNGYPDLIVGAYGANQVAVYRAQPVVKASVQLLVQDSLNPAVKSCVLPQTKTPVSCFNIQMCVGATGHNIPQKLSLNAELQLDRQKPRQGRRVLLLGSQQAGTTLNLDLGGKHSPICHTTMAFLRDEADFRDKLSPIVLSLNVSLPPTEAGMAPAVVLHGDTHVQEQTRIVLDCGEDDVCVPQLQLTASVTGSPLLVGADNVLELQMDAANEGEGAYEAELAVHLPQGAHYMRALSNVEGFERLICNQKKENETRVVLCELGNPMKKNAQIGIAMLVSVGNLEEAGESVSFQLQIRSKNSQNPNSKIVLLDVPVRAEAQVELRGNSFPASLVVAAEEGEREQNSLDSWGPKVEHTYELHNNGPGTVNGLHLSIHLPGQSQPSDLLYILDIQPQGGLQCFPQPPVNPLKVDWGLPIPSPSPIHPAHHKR
Sequence (P08514 891-1039 limits assumed): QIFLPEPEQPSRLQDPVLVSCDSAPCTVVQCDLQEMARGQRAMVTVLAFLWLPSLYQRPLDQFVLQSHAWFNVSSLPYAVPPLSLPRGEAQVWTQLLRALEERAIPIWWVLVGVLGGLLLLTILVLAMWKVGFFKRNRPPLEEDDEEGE

Compound	IC50
NCCOc1cccc(C(=O)NC[C@H](NS(=O)(=O)c2ccccc2)C(=O)O)c1	9200 nM
NCCCC(=O)NCC(=O)NC[C@@H](NS(=O)(=O)c1ccccc1)C(=O)O	> 30000 nM
NCCCCCC(=O)NCC(=O)NC[C@@H](NS(=O)(=O)c1ccccc1)C(=O)O	2800 nM
NCCCCC(=O)NCC(=O)NC[C@@H](NS(=O)(=O)c1ccccc1)C(=O)O	29000 nM
NCCc1ccc(C(=O)NC[C@H](NS(=O)(=O)c2ccccc2)C(=O)O)cc1	4900 nM
O=C(O)CCNC(=O)c1ccc(N2CCNCC2)cc1	230000 nM

Compounds with a lower IC50, results first:

IC50	Compound
130 nM	O=C(NC[C@H](NS(=O)(=O)c1ccccc1)C(=O)O)c1ccc(CCC2CCCCN2)cc1 (some centres undefined)
380 nM	NCCCCCCC(=O)NCC(=O)NC[C@@H](NS(=O)(=O)c1ccccc1)C(=O)O
110 nM	NCCOc1ccc(C(=O)NC[C@H](NS(=O)(=O)c2ccccc2)C(=O)O)cc1
13 nM	NCCCCCOc1ccc(C(=O)NC[C@H](NS(=O)(=O)c2ccccc2)C(=O)O)cc1
34 nM	O=C(NC[C@H](NS(=O)(=O)c1ccccc1)C(=O)O)c1ccc(CN2CCNCC2)cc1
55 nM	NCCCOc1ccc(C(=O)NC[C@H](NS(=O)(=O)c2ccccc2)C(=O)O)cc1
23 nM	NCCCCOc1ccc(C(=O)NC[C@H](NS(=O)(=O)c2ccccc2)C(=O)O)cc1
270 nM	NCCCc1ccc(C(=O)NC[C@H](NS(=O)(=O)c2ccccc2)C(=O)O)cc1

Source: ChEMBL document CHEMBL1132685, “Nonpeptide glycoprotein IIB/IIIA inhibitors. 19. A new design paradigm employing linearly minimized, centrally constrained, exosite inhibitors” (Bioorg Med Chem Lett, 1999)
